In US12122778B2, “Activating pyruvate kinase R” (Novo Nordisk Health Care AG, priority 2018, dated 2024):

Columns and labels:
PKR(G332S) = PKR(G332S) (Homo sapiens, UniProt P30613, G332S); assay: Luminescence Biochemical Assay (Kinase Glo Plus), PKR G332S mutant; conditions: with FBP; for activation at 1.54 µM: 1.54 μM compound, read-out: AC50 LUM KGP FBP % Fold@1.54 μM mean; for AC50: read-out: AC50 LUM KGP FBP AC50 μM gmean (column A); for Emax: read-out: AC50 LUM KGP FBP MAX % FOLD mean
Description: In some embodiments, a PKR Activating Compound can have: (1) an AC50 value of less than 0.1 μM (e.g., compounds with AC50 values of “+++” in Table 13), 0.1-1.0 μM (e.g., compounds with AC50 values of “++” in Table 13), or 1.01-40 μM (e.g., compounds with AC50 values of “+” in Table 13); (2) a MAX % Fold of 75%-250%, 250-500%, or 75%-500%; and/or (3) a % Fold@1.54 μM of 75%-250%, 250-500%, or 75%-500%. In some embodiments, a PKR Activating Compound has (1) an AC50 value of less than 1.0 μM; (2) a MAX % Fold of 75%-500%; and/or (3) a % Fold@1.54 μM of 75%-500%.
The phosphorylation of Adenosine-5′-diphosphate (ADP) by various mutants of PKR was determined by the Kinase Glo Plus Assay (Promega) in the presence or absence of FBP [D-Fructose-1,6-diphosphate; BOC Sciences, CAS: 81028-91-3] as follows. Unless otherwise indicated, all reagents were purchased from Sigma-Aldrich. All reagents were prepared in buffer containing 50 mM Tris-HCl, 100 mM KCl, 5 mM MgCl2, and 0.01% Triton X100, 0.03% BSA, and 1 mM DTT. Enzyme and PEP [Phospho(enol) pyruvic acid] were added at 2× to all wells of an assay-ready plate containing serial dilutions of test compounds or DMSO vehicle. Final enzyme concentrations for PKR(wt), PKR(R510Q), and PKR(G332S) were 0.8 nM, 0.8 nM, and 10 nM respectively. Final PEP concentration was 100 μM. The Enzyme/PEP mixture was incubated with compounds for 30 minutes at RT before the assay was initiated with the addition of 2×ADP [Adenosine-5′-diphosphate] and KinaseGloPlus. Final concentration of ADP was 100 μM. […] For assays containing FBP, that reagent is added at 30 μM upon reaction initiation. Reactions were allowed to progress for 45 minutes at RT until luminescence was recorded by the BMG PHERAstar FS Multilabel Reader. All compounds were tested in triplicate at concentrations ranging from 42.5 μM to 2.2 nM in 0.83% DMSO.
Luminescence values were converted to % Fold increase by normalizing to the average of the DMSO control and multiplying by 100. Max, min, slope and AC50 were determined by the standard four parameter fit algorithm of ActivityBase XE Runner. Compounds were evaluated with three parameters—AC50, MAX % Fold, and % Fold@1.54 μM (FIG. 1). The AC50 value for a compound is the concentration (μM) corresponding to the midway between the maximum and minimum values of the four parameter logistic curve fit (i.e., at which the % fold increase along the four parameter logistic curve fit is halfway between MAX % Fold and MIN % Fold (% Fold Midpoint)), MAX % Fold is the highest fold increase observed at any concentration of compound, and % Fold@1.54 μM is the fold increase at a compound concentration of 1.54 μM. The parameter % Fold@1.54 μM was selected to capture elements of both the AC50 and MAX % Fold and to provide a ranking based on both potency and effect. The compound concentration of 1.54 μM was chosen as one that can optimally differentiate the set of compounds based on the range of activities observed.
As set forth in Table 13 below, AC50 values (columns A, D, G) are defined as follows: ≤0.1 μM (+++); >0.1 μM and ≤1.0 μM (++); >1.0 μM and ≤40 μM (+); >40 μM (0). Max % FOLD values (columns B, E, H) are defined as follows: ≤75% (+); >75% and ≤250% (++); >250% and ≤500% (+++). % Fold@1.54 μM values (columns C, F, J) are defined as follows: ≤75% (+); >75% and ≤250% (++); >250% and ≤50000 (+++).

PKR(R510Q) = PKR(R510Q) (Homo sapiens, UniProt P30613, R510Q); assay: Luminescence Biochemical Assay (Kinase Glo Plus), PKR R510Q mutant; conditions: without FBP; for activation at 1.54 µM: 1.54 μM compound, read-out: AC50 LUM KGP woFBP % Fold@1.54 μM mean; for AC50: read-out: AC50 LUM KGP woFBP AC50 μM gmean; for Emax: read-out: AC50 LUM KGP woFBP MAX % FOLD mean
PKR(wt) = PKR(wt) (Homo sapiens, UniProt P30613); assay: Luminescence Biochemical Assay (Kinase Glo Plus), wild type PKR; conditions: without FBP; for activation at 1.54 µM: 1.54 μM compound, read-out: AC50 LUM KGP woFBP % Fold@1.54 μM mean; for AC50: read-out: AC50 LUM KGP woFBP AC50 μM gmean; for Emax: read-out: AC50 LUM KGP woFBP MAX % FOLD mean
Sequence of PKR(wt) (P30613 whole entry): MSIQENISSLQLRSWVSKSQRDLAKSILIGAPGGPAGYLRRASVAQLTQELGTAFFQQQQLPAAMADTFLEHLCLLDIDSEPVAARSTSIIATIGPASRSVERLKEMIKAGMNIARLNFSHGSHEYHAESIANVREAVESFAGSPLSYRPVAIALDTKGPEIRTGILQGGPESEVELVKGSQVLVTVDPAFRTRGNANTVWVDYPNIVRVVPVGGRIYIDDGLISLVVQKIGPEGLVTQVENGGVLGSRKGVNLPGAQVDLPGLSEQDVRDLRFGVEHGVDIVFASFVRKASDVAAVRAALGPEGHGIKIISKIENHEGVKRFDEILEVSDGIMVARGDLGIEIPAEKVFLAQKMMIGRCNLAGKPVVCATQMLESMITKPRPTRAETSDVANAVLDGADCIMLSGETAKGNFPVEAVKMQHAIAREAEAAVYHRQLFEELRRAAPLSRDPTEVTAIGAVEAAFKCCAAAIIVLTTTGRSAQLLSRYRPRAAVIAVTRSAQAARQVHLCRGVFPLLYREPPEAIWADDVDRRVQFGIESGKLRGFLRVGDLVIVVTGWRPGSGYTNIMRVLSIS

Sequence of PKR(G332S) (P30613 whole entry G332S): as the sequence (P30613 whole entry) above, with G332S counted along it
Sequence of PKR(R510Q) (P30613 whole entry R510Q): as the sequence (P30613 whole entry) above, with R510Q counted along it

SMILES | activation at 1.54 µM (PKR(G332S)) [%] | AC50 (PKR(G332S)) [µM] | Emax (PKR(G332S)) [%] | activation at 1.54 µM (PKR(R510Q)) [%] | AC50 (PKR(R510Q)) [µM] | Emax (PKR(R510Q)) [%] | activation at 1.54 µM (PKR(wt)) [%] | AC50 (PKR(wt)) [µM] | Emax (PKR(wt)) [%]
O=C(NCc1ccccc1F)N1CC2=C(C1)CN(S(=O)(=O)c1ccc(C(F)(F)F)nc1)C2 [Example 21-40, N-[(2-fluorophenyl)methyl]-5-{[6-(trifluoromethyl)pyridin-3-yl]sulfonyl}-1H,2H,3H,4H,5H,6H-pyrrolo[3,4-c]pyrrole-2-carboxamide] | 75 to 250 | 1 to 40 | 75 to 250 | 75 to 250 | 0.1 to 1 | 75 to 250 | 75 to 250 | 0.1 to 1 | 75 to 250
O=C(Cc1ccc[nH]1)N1CC2=C(C1)CN(S(=O)(=O)c1ccc(OC(F)F)cc1)C2 [Example 18-27, 1-{5-[4-(Difluoromethoxy)benzenesulfonyl]-1H,2H,3H,4H,5H,6H-pyrrolo[3,4-c]pyrrol-2-yl}-2-(1H-pyrrol-2-yl)ethan-1-one] | 75 to 250 | 1 to 40 | 75 to 250 | 75 to 250 | 1 to 40 | 75 to 250 | 75 to 250 | 1 to 40 | 75 to 250
Cc1ccc(CC(=O)N2CC3=C(C2)CN(S(=O)(=O)c2ccccn2)C3)cn1 [Example 18-61, 2-(6-Methylpyridin-3-yl)-1-[5-(pyridine-2-sulfonyl)-1H,2H,3H,4H,5H,6H-pyrrolo[3,4-c]pyrrol-2-yl]ethan-1-one] | 75 to 250 | 1 to 40 | 75 to 250 | 75 to 250 | 1 to 40 | 250 to 500 | 75 to 250 | 1 to 40 | 250 to 500
O=C(NCc1ccc(F)cc1)N1CC2=C(C1)CN(S(=O)(=O)c1ccc(OC(F)F)cc1)C2 [Example 21-13, 5-[4-(Difluoromethoxy)benzenesulfonyl]-N-[(4-fluorophenyl)methyl]-1H,2H,3H,4H,5H,6H-pyrrolo[3,4-c]pyrrole-2-carboxamide] | 75 to 250 | ≤ 0.1 | 75 to 250 | 250 to 50000 | 0.1 to 1 | 250 to 500 | 250 to 50000 | 0.1 to 1 | 250 to 500
Cc1cc(COC(=O)N2CC3=C(C2)CN(S(=O)(=O)c2ccc(OC(F)F)cc2)C3)nn1C [Example 22-4, (1,5-Dimethyl-1H-pyrazol-3-yl)methyl 5-[4-(difluoromethoxy)benzenesulfonyl]-1H,2H,3H,4H,5H,6H-pyrrolo[3,4-c]pyrrole-2-carboxylate] | 75 to 250 | 0.1 to 1 | 75 to 250 | 250 to 50000 | 1 to 40 | 250 to 500 | 250 to 50000 | 0.1 to 1 | 250 to 500
Cc1cc(COC(=O)N2CC3=C(C2)CN(S(=O)(=O)c2ccc(OC(F)F)cc2)C3)no1 [Example 22-5, (5-Methyl-1,2-oxazol-3-yl)methyl-5-[4-(difluoromethoxy)benzenesulfonyl]-1H,2H,3H,4H,5H,6H-pyrrolo[3,4-c]pyrrole-2-carboxylate] | 75 to 250 | 0.1 to 1 | 75 to 250 | 250 to 50000 | 0.1 to 1 | 250 to 500 | 250 to 50000 | 0.1 to 1 | 250 to 500
O=C(C(F)c1ccccc1)N1CC2=C(C1)CN(S(=O)(=O)c1ccc(OC(F)F)cc1)C2 (stereo not drawn) [Example 18-24, 1-{5-[4-(Difluoromethoxy)benzenesulfonyl]-1H,2H,3H,4H,5H,6H-pyrrolo[3,4-c]pyrrol-2-yl}-2-fluoro-2-phenylethan-1-one] | 75 to 250 | ≤ 0.1 | 75 to 250 | 250 to 50000 | ≤ 0.1 | 250 to 500 | 250 to 50000 | 0.1 to 1 | 250 to 500
CC(C)Oc1ccc(S(=O)(=O)N2CC3=C(CN(C(=O)[C@H](O)c4ccccc4)C3)C2)cc1 [Example 18-12, (2R)-2-hydroxy-2-phenyl-1-{5-[4-(propan-2-yloxy)benzenesulfonyl]-1H,2H,3H,4H,5H,6H-pyrrolo[3,4-c]pyrrol-2-yl}ethan-1-one] | 75 to 250 | 0.1 to 1 | 75 to 250 | 75 to 250 | 1 to 40 | 250 to 500 | 75 to 250 | 0.1 to 1 | 75 to 250
O=C([C@H](O)c1ccccc1)N1CC2=C(C1)CN(S(=O)(=O)c1cc(F)cc(F)c1)C2 [Example 18-52, (2R)-1-[5-(3,5-difluorobenzenesulfonyl)-1H,2H,3H,4H,5H,6H-pyrrolo[3,4-c]pyrrol-2-yl]-2-hydroxy-2-phenylethan-1-one] | 75 to 250 | 1 to 40 | 75 to 250 | 75 to 250 | 0.1 to 1 | 75 to 250 | 75 to 250 | 0.1 to 1 | 75 to 250
O=C(Cc1ccc[nH]1)N1CC2=C(C1)CN(S(=O)(=O)c1cccnc1)C2 [Example 18-73, 1-[5-(Pyridine-3-sulfonyl)-1H,2H,3H,4H,5H,6H-pyrrolo[3,4-c]pyrrol-2-yl]-2-(1H-pyrrol-2-yl)ethan-1-one] | 75 to 250 | 1 to 40 | 75 to 250 | 75 to 250 | 1 to 40 | 75 to 250 | 75 to 250 | 1 to 40 | 75 to 250
CC(=O)Nc1ccc(S(=O)(=O)N2CC3=C(CN(C(=O)[C@H](O)c4ccccc4)C3)C2)cc1 [Example 18-56, N-[4-({5-[(2R)-2-hydroxy-2-phenylacetyl]-1H,2H,3H,4H,5H,6H-pyrrolo[3,4-c]pyrrol-2-yl}sulfonyl)phenyl]acetamide] | 75 to 250 | 1 to 40 | 75 to 250 | 75 to 250 | 1 to 40 | 250 to 500 | 75 to 250 | 1 to 40 | 75 to 250
O=C([C@H](O)c1ccc2c(c1)NCCO2)N1CC2=C(C1)CN(S(=O)(=O)c1ccc(OC(F)F)cc1)C2 (single isomer, unassigned) [Example 9-4] | 75 to 250 | 0.1 to 1 | 75 to 250 | 75 to 250 | 1 to 40 | 250 to 500 | 75 to 250 | 1 to 40 | 250 to 500
O=C([C@H](O)c1ccc2c(c1)CNCC2)N1CC2=C(C1)CN(S(=O)(=O)c1ccc(OC(F)F)cc1)C2 (single isomer, unassigned) [Example 11-2] | 75 to 250 | 0.1 to 1 | 75 to 250 | 250 to 50000 | ≤ 0.1 | 250 to 500 | 75 to 250 | ≤ 0.1 | 250 to 500
